These compounds were tested against Serum amyloid P-component (Homo sapiens) (UniProt P02743) (assay: Inhibition of calcium dependent [125I]serum amyloid P-component (unknown origin) binding to immobilized Neisseria meningitidis at 2 mM incubated for 2 hrs by fluorescence/electron microscopy relative to control).
Serum amyloid P-component (Homo sapiens), sequence (P02743 whole entry): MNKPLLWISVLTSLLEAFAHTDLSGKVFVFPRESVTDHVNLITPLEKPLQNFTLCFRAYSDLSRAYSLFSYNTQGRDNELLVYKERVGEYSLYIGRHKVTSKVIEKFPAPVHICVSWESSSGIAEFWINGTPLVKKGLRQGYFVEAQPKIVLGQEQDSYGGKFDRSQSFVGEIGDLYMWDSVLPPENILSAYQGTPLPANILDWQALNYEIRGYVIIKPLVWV

O=C(O)[C@H]1CCCN1C(=O)COc1cccc2c(OCC(=O)N3CCC[C@@H]3C(=O)O)cccc12 and O=C(O)[C@H]1CCCN1C(=O)COc1ccccc1OCC(=O)N1CCC[C@@H]1C(=O)O are the same in inhibition: 100% for the first, 100% for the second.

O=C(O)[C@H]1CCCN1C(=O)COc1ccc(OCC(=O)N2CCC[C@@H]2C(=O)O)cc1 and O=C(O)[C@H]1CCCN1C(=O)Cc1cccc(CC(=O)N2CCC[C@@H]2C(=O)O)c1 are the same in inhibition: 100% for the first, 100% for the second.

What follows are compounds tested against Serum amyloid P-component (Homo sapiens) (UniProt P02743) (assay: Inhibition of calcium dependent [125I]serum amyloid P-component (unknown origin) binding to immobilized Neisseria meningitidis at 200 uM incubated for 2 hrs by fluorescence/electron microscopy relative to control).

O=C(O)[C@H]1CCCN1C(=O)COc1cccc2c(OCC(=O)N3CCC[C@@H]3C(=O)O)cccc12 and O=C(O)[C@H]1CCCN1C(=O)COc1ccccc1OCC(=O)N1CCC[C@@H]1C(=O)O are the same in inhibition: 100% for the first, 100% for the second.

First: O=C(O)[C@H]1CCCN1C(=O)COc1ccc(OCC(=O)N2CCC[C@@H]2C(=O)O)cc1
Second: O=C(O)[C@H]1CCCN1C(=O)Cc1cccc(CC(=O)N2CCC[C@@H]2C(=O)O)c1
The inhibition of the first is lower: 65% for the first, 100% for the second.

These compounds were tested against Serum amyloid P-component (Homo sapiens) (UniProt P02743) (assay: Inhibition of calcium dependent [125I]serum amyloid P-component (unknown origin) binding to immobilized Neisseria meningitidis at 20 uM incubated for 2 hrs by fluorescence/electron microscopy relative to control).

Going from O=C(O)[C@H]1CCCN1C(=O)COc1cccc2c(OCC(=O)N3CCC[C@@H]3C(=O)O)cccc12 to O=C(O)[C@H]1CCCN1C(=O)COc1ccccc1OCC(=O)N1CCC[C@@H]1C(=O)O, the inhibition rises from 81% to 87%.

Compared with O=C(O)[C@H]1CCCN1C(=O)COc1ccc(OCC(=O)N2CCC[C@@H]2C(=O)O)cc1, O=C(O)[C@H]1CCCN1C(=O)Cc1cccc(CC(=O)N2CCC[C@@H]2C(=O)O)c1 is higher in inhibition: 74% for the first, 92% for the second.

What follows are compounds tested against Serum amyloid P-component (Homo sapiens) (UniProt P02743) (assay: Inhibition of calcium dependent [125I]serum amyloid P-component (unknown origin) binding to immobilized Neisseria meningitidis at 2 uM incubated for 2 hrs by fluorescence/electron microscopy relative to control).

Compared with O=C(O)[C@H]1CCCN1C(=O)COc1cccc2c(OCC(=O)N3CCC[C@@H]3C(=O)O)cccc12, O=C(O)[C@H]1CCCN1C(=O)COc1ccccc1OCC(=O)N1CCC[C@@H]1C(=O)O is higher in inhibition: 72% for the first, 77% for the second.

Going from O=C(O)[C@H]1CCCN1C(=O)COc1ccc(OCC(=O)N2CCC[C@@H]2C(=O)O)cc1 to O=C(O)[C@H]1CCCN1C(=O)Cc1cccc(CC(=O)N2CCC[C@@H]2C(=O)O)c1, the inhibition falls from 65% to 64%.

Each compound was assayed against Serum amyloid P-component (Homo sapiens) (UniProt P02743) (assay: Inhibition of calcium dependent [125I]serum amyloid P-component (unknown origin) binding to immobilized Neisseria meningitidis at 200 nM incubated for 2 hrs by fluorescence/electron microscopy relative to control).

First: O=C(O)[C@H]1CCCN1C(=O)COc1cccc2c(OCC(=O)N3CCC[C@@H]3C(=O)O)cccc12
Second: O=C(O)[C@H]1CCCN1C(=O)COc1ccccc1OCC(=O)N1CCC[C@@H]1C(=O)O
The inhibition of the first is higher: 30% for the first, 18% for the second.

Going from O=C(O)[C@H]1CCCN1C(=O)COc1ccc(OCC(=O)N2CCC[C@@H]2C(=O)O)cc1 to O=C(O)[C@H]1CCCN1C(=O)Cc1cccc(CC(=O)N2CCC[C@@H]2C(=O)O)c1, the inhibition rises from 0% to 28%.

These compounds were tested against Serum amyloid P-component (Homo sapiens) (UniProt P02743) (assay: Inhibition of calcium dependent [125I]serum amyloid P-component (unknown origin) binding to immobilized chicken erythrocyte native long chromatin at 2 mM incubated for 2 hrs by gamma counting relative to control).

O=C(O)[C@H]1CCCN1C(=O)COc1cccc2c(OCC(=O)N3CCC[C@@H]3C(=O)O)cccc12 and O=C(O)[C@H]1CCCN1C(=O)COc1ccccc1OCC(=O)N1CCC[C@@H]1C(=O)O are the same in inhibition: 96% for the first, 96% for the second.

First: O=C(O)[C@H]1CCCN1C(=O)COc1ccc(OCC(=O)N2CCC[C@@H]2C(=O)O)cc1
Second: O=C(O)[C@H]1CCCN1C(=O)Cc1cccc(CC(=O)N2CCC[C@@H]2C(=O)O)c1
The inhibition of the first is lower: 91% for the first, 98% for the second.

Each compound was assayed against Serum amyloid P-component (Homo sapiens) (UniProt P02743) (assay: Inhibition of calcium dependent [125I]serum amyloid P-component (unknown origin) binding to immobilized chicken erythrocyte native long chromatin at 200 uM incubated for 2 hrs by gamma counting relative to control).

Going from O=C(O)[C@H]1CCCN1C(=O)COc1cccc2c(OCC(=O)N3CCC[C@@H]3C(=O)O)cccc12 to O=C(O)[C@H]1CCCN1C(=O)COc1ccccc1OCC(=O)N1CCC[C@@H]1C(=O)O, the inhibition rises from 82% to 89%.

First: O=C(O)[C@H]1CCCN1C(=O)COc1ccc(OCC(=O)N2CCC[C@@H]2C(=O)O)cc1
Second: O=C(O)[C@H]1CCCN1C(=O)Cc1cccc(CC(=O)N2CCC[C@@H]2C(=O)O)c1
The inhibition of the first is lower: 75% for the first, 94% for the second.

What follows are compounds tested against Serum amyloid P-component (Homo sapiens) (UniProt P02743) (assay: Inhibition of calcium dependent [125I]serum amyloid P-component (unknown origin) binding to immobilized chicken erythrocyte native long chromatin at 20 uM incubated for 2 hrs by gamma counting relative to control).

Going from O=C(O)[C@H]1CCCN1C(=O)COc1cccc2c(OCC(=O)N3CCC[C@@H]3C(=O)O)cccc12 to O=C(O)[C@H]1CCCN1C(=O)COc1ccccc1OCC(=O)N1CCC[C@@H]1C(=O)O, the inhibition rises from 74% to 77%.

O=C(O)[C@H]1CCCN1C(=O)COc1ccc(OCC(=O)N2CCC[C@@H]2C(=O)O)cc1 and O=C(O)[C@H]1CCCN1C(=O)Cc1cccc(CC(=O)N2CCC[C@@H]2C(=O)O)c1 are the same in inhibition: 56% for the first, 56% for the second.

What follows are compounds tested against Serum amyloid P-component (Homo sapiens) (UniProt P02743) (assay: Inhibition of calcium dependent [125I]serum amyloid P-component (unknown origin) binding to immobilized chicken erythrocyte native long chromatin at 2 uM incubated for 2 hrs by gamma counting relative to control).

Compared with O=C(O)[C@H]1CCCN1C(=O)COc1cccc2c(OCC(=O)N3CCC[C@@H]3C(=O)O)cccc12, O=C(O)[C@H]1CCCN1C(=O)COc1ccccc1OCC(=O)N1CCC[C@@H]1C(=O)O is lower in inhibition: 51% for the first, 34% for the second.

First: O=C(O)[C@H]1CCCN1C(=O)COc1ccc(OCC(=O)N2CCC[C@@H]2C(=O)O)cc1
Second: O=C(O)[C@H]1CCCN1C(=O)Cc1cccc(CC(=O)N2CCC[C@@H]2C(=O)O)c1
The inhibition of the first is higher: 36% for the first, 18% for the second.

What follows are compounds tested against Serum amyloid P-component (Homo sapiens) (UniProt P02743) (assay: Inhibition of calcium dependent [125I]serum amyloid P-component (unknown origin) binding to immobilized chicken erythrocyte native long chromatin at 200 nM incubated for 2 hrs by gamma counting relative to control).

Compared with O=C(O)[C@H]1CCCN1C(=O)COc1cccc2c(OCC(=O)N3CCC[C@@H]3C(=O)O)cccc12, O=C(O)[C@H]1CCCN1C(=O)COc1ccccc1OCC(=O)N1CCC[C@@H]1C(=O)O is lower in inhibition: 12% for the first, 7% for the second.

First: O=C(O)[C@H]1CCCN1C(=O)COc1ccc(OCC(=O)N2CCC[C@@H]2C(=O)O)cc1
Second: O=C(O)[C@H]1CCCN1C(=O)Cc1cccc(CC(=O)N2CCC[C@@H]2C(=O)O)c1
The inhibition of the first is higher: 1% for the first, 0% for the second.

Each compound was assayed against Serum amyloid P-component (Homo sapiens) (UniProt P02743) (assay: Inhibition of calcium dependent [125I]serum amyloid P-component (unknown origin) binding to immobilized influenza virus A/Shanghai/24/90 at 2 mM incubated for 2 hrs by fluorescence/electron microscopy relative to control).

Compared with O=C(O)[C@H]1CCCN1C(=O)COc1cccc2c(OCC(=O)N3CCC[C@@H]3C(=O)O)cccc12, O=C(O)[C@H]1CCCN1C(=O)COc1ccccc1OCC(=O)N1CCC[C@@H]1C(=O)O is higher in inhibition: 80% for the first, 94% for the second.

Compared with O=C(O)[C@H]1CCCN1C(=O)COc1ccc(OCC(=O)N2CCC[C@@H]2C(=O)O)cc1, O=C(O)[C@H]1CCCN1C(=O)Cc1cccc(CC(=O)N2CCC[C@@H]2C(=O)O)c1 is lower in inhibition: 87% for the first, 82% for the second.

What follows are compounds tested against Serum amyloid P-component (Homo sapiens) (UniProt P02743) (assay: Inhibition of calcium dependent [125I]serum amyloid P-component (unknown origin) binding to immobilized influenza virus A/Shanghai/24/90 at 200 uM incubated for 2 hrs by fluorescence/electron microscopy relative to control).

Compared with O=C(O)[C@H]1CCCN1C(=O)COc1cccc2c(OCC(=O)N3CCC[C@@H]3C(=O)O)cccc12, O=C(O)[C@H]1CCCN1C(=O)COc1ccccc1OCC(=O)N1CCC[C@@H]1C(=O)O is higher in inhibition: 76% for the first, 93% for the second.

Going from O=C(O)[C@H]1CCCN1C(=O)COc1ccc(OCC(=O)N2CCC[C@@H]2C(=O)O)cc1 to O=C(O)[C@H]1CCCN1C(=O)Cc1cccc(CC(=O)N2CCC[C@@H]2C(=O)O)c1, the inhibition falls from 84% to 77%.

The compounds below were run against Serum amyloid P-component (Homo sapiens) (UniProt P02743) (assay: Inhibition of calcium dependent [125I]serum amyloid P-component (unknown origin) binding to immobilized influenza virus A/Shanghai/24/90 at 20 uM incubated for 2 hrs by fluorescence/electron microscopy relative to control).

First: O=C(O)[C@H]1CCCN1C(=O)COc1cccc2c(OCC(=O)N3CCC[C@@H]3C(=O)O)cccc12
Second: O=C(O)[C@H]1CCCN1C(=O)COc1ccccc1OCC(=O)N1CCC[C@@H]1C(=O)O
The inhibition of the first is lower: 64% for the first, 88% for the second.

First: O=C(O)[C@H]1CCCN1C(=O)COc1ccc(OCC(=O)N2CCC[C@@H]2C(=O)O)cc1
Second: O=C(O)[C@H]1CCCN1C(=O)Cc1cccc(CC(=O)N2CCC[C@@H]2C(=O)O)c1
The inhibition of the first is higher: 82% for the first, 73% for the second.

What follows are compounds tested against Serum amyloid P-component (Homo sapiens) (UniProt P02743) (assay: Inhibition of calcium dependent [125I]serum amyloid P-component (unknown origin) binding to immobilized influenza virus A/Shanghai/24/90 at 2 uM incubated for 2 hrs by fluorescence/electron microscopy relative to control).

Going from O=C(O)[C@H]1CCCN1C(=O)COc1cccc2c(OCC(=O)N3CCC[C@@H]3C(=O)O)cccc12 to O=C(O)[C@H]1CCCN1C(=O)COc1ccccc1OCC(=O)N1CCC[C@@H]1C(=O)O, the inhibition rises from 51% to 68%.

Compared with O=C(O)[C@H]1CCCN1C(=O)COc1ccc(OCC(=O)N2CCC[C@@H]2C(=O)O)cc1, O=C(O)[C@H]1CCCN1C(=O)Cc1cccc(CC(=O)N2CCC[C@@H]2C(=O)O)c1 is lower in inhibition: 77% for the first, 68% for the second.

Each compound was assayed against Serum amyloid P-component (Homo sapiens) (UniProt P02743) (assay: Inhibition of calcium dependent [125I]serum amyloid P-component (unknown origin) binding to immobilized influenza virus A/Shanghai/24/90 at 200 nM incubated for 2 hrs by fluorescence/electron microscopy relative to control).

Compared with O=C(O)[C@H]1CCCN1C(=O)COc1cccc2c(OCC(=O)N3CCC[C@@H]3C(=O)O)cccc12, O=C(O)[C@H]1CCCN1C(=O)COc1ccccc1OCC(=O)N1CCC[C@@H]1C(=O)O is higher in inhibition: 23% for the first, 44% for the second.

Compared with O=C(O)[C@H]1CCCN1C(=O)COc1ccc(OCC(=O)N2CCC[C@@H]2C(=O)O)cc1, O=C(O)[C@H]1CCCN1C(=O)Cc1cccc(CC(=O)N2CCC[C@@H]2C(=O)O)c1 is higher in inhibition: 3% for the first, 25% for the second.

From ChEMBL document CHEMBL3882241, “Compounds inhibiting the binding of sap for treating osteoarthritis” (2006)
